# Assay results reported in patent US11702409B2, “Pyrazolyl derivatives useful as anti-cancer agents” (NOVARTIS AG, priority 2019, dated 2023).
# Biological target: KRasG12C (M1-K169, biotinylated on the N-terminus) (Homo sapiens (Human), UniProt P01116, G12C)
# Assay: Covalent competition assay (scintillation proximity assay, competition with radiolabeled covalent probe Compound B)
# Assay type: binding
# Conditions: in vitro KRASG12C activity; 10 nM KRasG12C:GDP, 25 nM radio-ligand and 475 nM unlabelled ligand, incubated 2 hours; read-out: Covalent Competition Assay IC50
# Protocol: The cells were lysed by 4 passages through an Avestin Emulsiflex at about 20000 psi and insoluble debris removed by centrifugation and filtered through a 0.45 μm Durapore membrane (Millipore). […] The protein in the flow through was subjected to a final polishing step on a HiLoad 16/60 Superdex 200 prep grade size-exclusion column pre-equilibrated with SEC-buffer (20 mM HEPES pH 7.4, 150 mM NaCl, 5 mM MgCl2, 1 μM GDP).
# A scintillation proximity assay (SPA) was used to determine the potency of the compounds. This assay measures the ability of the test compound to compete with the radiolabeled covalent probe for binding to and covalently modify KRASG12C.
# A serial dilution of the compounds to be tested is mixed with a fixed concentration of the radiolabeled covalent probe before incubation with KRASG12C:GDP as described below.
# The reaction was started by addition of KRasG12C (M1-K169, biotinylated on the N-terminus) to the compounds and incubated for 2 hours with continuous agitation allowing for full modification of KRasG12C with probe or test compounds. […] The assay buffer contained 20 mM Tris-HCl pH 7.5 (Invitrogen), 150 mM NaCl (Sigma Aldrich), 0.1 mM MgCl2 (Sigma Aldrich), and 0.01% Tween-20 (Sigma Aldrich).
# Evaluation was carried out using assay data analysis software (such as the standard Novartis in-house Helios software application, Novartis Institutes for BioMedical Research, unpublished) using the methods described in Formenko et al., Robust Regression for high-throughput screening.
# Evaluation can also be carried out using commercially available software which is designed to derive IC50 values using 4-parameter fits (e.g. GraphPad Prism, XL fit).
structure (smiles),measurement,value
"C=CC(=O)N1CC2(CC(n3nc(-c4ccc(C(=O)NCCN(C)C)cc4)c(-c4c(Cl)c(C)cc5[nH]ncc45)c3C)C2)C1 (single isomer, unassigned) [Example 65a]",IC50,46 nM
"C=CC(=O)N1CC2(CC(n3nc(-c4cnc5c(cnn5C)c4)c(-c4c(Cl)c(C)cc5[nH]ncc45)c3C)C2)C1 (single isomer, unassigned) [Example 37a]",IC50,112 nM
"C=CC(=O)N1CC2(CC(n3nc(-c4cc5ccncc5[nH]4)c(-c4c(Cl)c(C)cc5[nH]ncc45)c3C)C2)C1 (single isomer, unassigned) [Example 59a, 1-(6-(4-(5-chloro-6-methyl-1H-indazol-4-yl)-5-methyl-3-(1H-pyrrolo[2,3-c]pyridin-2-yl)-1H-pyrazol-1-yl)-2-azaspiro[3.3]heptan-2-yl)prop-2-en-1-one]",IC50,173 nM
"C=CC(=O)N1CC2(CC(n3nc(-c4ccc(CN5CCCC5=O)cc4)c(-c4c(Cl)c(C)cc5[nH]ncc45)c3C)C2)C1 [Example 48, 1-(4-(1-(2-acryloyl-2-azaspiro[3.3]heptan-6-yl)-4-(5-chloro-6-methyl-1H-indazol-4-yl)-5-methyl-1H-pyrazol-3-yl)benzyl)pyrrolidin-2-one]",IC50,49 nM
C=CC(=O)N1CC2(CC(n3nc(-c4cc5cn(C)nc5cn4)c(-c4c(Cl)c(C)cc5[nH]ncc45)c3C)C2)C1 [Example 77],IC50,195 nM
"C=CC(=O)N1CC2(CC(n3nc(-c4cccnc4)c(-c4c(Cl)ccc5[nH]ncc45)c3C)C2)C1 (single isomer, unassigned) [Example 19b]",IC50,> 50000 nM
C=CC(=O)N1CC2(CC(n3nc(-c4cccnc4)c(-c4c(Cl)c(C)cc5[nH]ncc45)c3CC#N)C2)C1 [Example 88],IC50,13500 nM
"C=CC(=O)N1CC2(CC(n3nc(-c4ccc5c(cnn5C)c4)c(-c4c(Cl)c(C)cc5[nH]ncc45)c3C)C2)C1 (single isomer, unassigned) [Example 1a]",IC50,17 nM
"C=CC(=O)N1CC2(CC(n3nc(-c4cncc(C#N)c4)c(-c4c(Cl)c(C)cc5[nH]ncc45)c3C)C2)C1 (single isomer, unassigned) [Example 10b]",IC50,> 50000 nM
"C=CC(=O)N1CC2(CC(n3nc(-c4cccnc4C)c(-c4c(Cl)c(C)cc5[nH]ncc45)c3C(F)F)C2)C1 (single isomer, unassigned) [Example 84a, 1-(6-(4-(5-Chloro-6-methyl-1H-indazol-4-yl)-5-(difluoromethyl)-3-(2-methylpyridin-3-yl)-1H-pyrazol-1-yl)-2-azaspiro[3.3]heptan-2-yl)prop-2-en-1-one]",IC50,536 nM
"C=CC(=O)N1CC2(CC(n3nc(-c4ccc5nnccc5c4)c(-c4c(Cl)c(C)cc5[nH]ncc45)c3C)C2)C1 (single isomer, unassigned) [Example 71a, 1-(6-(4-(5-chloro-6-methyl-1H-indazol-4-yl)-3-(cinnolin-6-yl)-5-methyl-1H-pyrazol-1-yl)-2-azaspiro[3.3]heptan-2-yl)prop-2-en-1-one]",IC50,101 nM
"C=CC(=O)N1CC2(CC(n3nc(-c4cc(C)nn4CCN(C)C)c(-c4c(Cl)c(C)cc5[nH]ncc45)c3C)C2)C1 (single isomer, unassigned) [Example 92b]",IC50,43000 nM
"C=CC(=O)N1CC2(CC(n3nc(-c4ccc5c(c4)CCN5C(C)=O)c(-c4c(Cl)c(C)cc5[nH]ncc45)c3C)C2)C1 (single isomer, unassigned) [Example 22b]",IC50,> 50000 nM
"C=CC(=O)N1CC2(CC(n3nc(-c4ccc(C(=O)NCCN(C)C)cc4)c(-c4c(Cl)c(C)cc5[nH]ncc45)c3C)C2)C1 (single isomer, unassigned) [Example 65b]",IC50,17400 nM
"C=CC(=O)N1CC2(CC(n3nc(-c4cnn(S(=O)(=O)C5CC5)c4)c(-c4c(Cl)c(C)cc5[nH]ncc45)c3C)C2)C1 (single isomer, unassigned) [Example 36a]",IC50,516 nM
"C=CC(=O)N1CC2(CC(n3nc(-c4ccc(C(=O)NCCOC)c(F)c4)c(-c4c(Cl)c(C)cc5[nH]ncc45)c3C)C2)C1 (single isomer, unassigned) [Example 63b]",IC50,33800 nM
"C=CC(=O)N1CC2(CC(n3nc(C4=CN5CC(C)(C)N=C5C(F)=C4)c(-c4c(Cl)c(C)cc5[nH]ncc45)c3C)C2)C1 (single isomer, unassigned) [Example 73b]",IC50,> 50000 nM
"C=CC(=O)N1CC2(CC(n3nc(-c4cccnc4)c(-c4c(Cl)c(Cl)cc5[nH]ncc45)c3C(F)F)C2)C1 (single isomer, unassigned) [Example 85a]",IC50,335 nM
"C=CC(=O)N1CC2(CC(n3nc(-c4ccc5cnccc5c4)c(-c4c(Cl)c(C)cc5[nH]ncc45)c3C)C2)C1 (single isomer, unassigned) [Example 25a]",IC50,41 nM
"C=CC(=O)N1CC2(CC(n3nc(-c4ccnc(C#N)c4)c(-c4c(Cl)c(C)cc5[nH]ncc45)c3C)C2)C1 (single isomer, unassigned) [Example 9b]",IC50,> 50000 nM
"C=CC(=O)N1CC2(CC(n3nc(-c4ccc(C#N)nc4)c(-c4c(Cl)c(C)cc5[nH]ncc45)c3C)C2)C1 (single isomer, unassigned) [Example 11a]",IC50,973 nM
"C=CC(=O)N1CC2(CC(n3nc(-c4ccc5nn(CCN(C)C)cc5c4)c(-c4c(Cl)c(C)cc5[nH]ncc45)c3C)C2)C1 (single isomer, unassigned) [Example 16b]",IC50,23400 nM
"C=CC(=O)N1CC2(CC(n3nc(-c4ccc(N5CCN(C)C5=O)cc4)c(-c4c(Cl)c(C)cc5[nH]ncc45)c3C)C2)C1 (single isomer, unassigned) [Example 13b]",IC50,14800 nM
"C=CC(=O)N1CC2(CC(n3nc(-c4ccnc(C)c4)c(-c4c(Cl)ccc5[nH]ncc45)c3C)C2)C1 (single isomer, unassigned) [Example 28a]",IC50,1280 nM
"C=CC(=O)N1CC2(CC(n3nc(-c4cc5ccncc5[nH]4)c(-c4c(Cl)c(C)cc5[nH]ncc45)c3C)C2)C1 (single isomer, unassigned) [Example 59b, 1-(6-(4-(5-chloro-6-methyl-1H-indazol-4-yl)-5-methyl-3-(1H-pyrrolo[2,3-c]pyridin-2-yl)-1H-pyrazol-1-yl)-2-azaspiro[3.3]heptan-2-yl)prop-2-en-1-one]",IC50,> 50000 nM
"C=CC(=O)N1CC2(CC(n3nc(-c4ccc(OC)nc4)c(-c4c(Cl)c(C)cc5[nH]ncc45)c3C)C2)C1 [Example 78a, 1-(6-(4-(5-chloro-6-methyl-1H-indazol-4-yl)-3-(6-methoxypyridin-3-yl)-5-methyl-1H-pyrazol-1-yl)-2-azaspiro[3.3]heptan-2-yl)prop-2-en-1-one]",IC50,216 nM
"C=CC(=O)N1CC2(CC(n3nc(-c4ccn5ccnc5c4)c(-c4c(Cl)c(C)cc5[nH]ncc45)c3C)C2)C1 (single isomer, unassigned) [Example 33a]",IC50,253 nM
"C=CC(=O)N1CC2(CC(n3nc(-c4c(C)cncc4C)c(-c4c(Cl)c(C)cc5[nH]ncc45)c3C)C2)C1 (single isomer, unassigned) [Example 74b]",IC50,> 50000 nM
"C=CC(=O)N1CC2(CC(n3nc(-c4cncc(C#N)c4)c(-c4c(Cl)c(C)cc5[nH]ncc45)c3C)C2)C1 (single isomer, unassigned) [Example 10a]",IC50,1200 nM
"C=CC(=O)N1CC2(CC(n3nc(-c4ccccn4)c(-c4c(Cl)c(C)cc5[nH]ncc45)c3C)C2)C1 (single isomer, unassigned) [Example 46b, 1-(6-(4-(5-chloro-6-methyl-1H-indazol-4-yl)-5-methyl-3-(pyridin-2-yl)-1H-pyrazol-1-yl)-2-azaspiro[3.3]heptan-2-yl)prop-2-en-1-one]",IC50,> 50000 nM
"C=CC(=O)N1CC2(CC(n3nc(-c4ccc(C(=O)N(C)CCOC)cc4)c(-c4c(Cl)c(C)cc5[nH]ncc45)c3C)C2)C1 (single isomer, unassigned) [Example 66a, 4-(1-(2-acryloyl-2-azaspiro[3.3]heptan-6-yl)-4-(5-chloro-6-methyl-1H-indazol-4-yl)-5-methyl-1H-pyrazol-3-yl)-N-(2-methoxyethyl)-N-methylbenzamide]",IC50,240 nM
"C=CC(=O)N1CC2(CC(n3nc(C4=CCC(F)(F)CC4)c(-c4c(Cl)c(C)cc5[nH]ncc45)c3C)C2)C1 (single isomer, unassigned) [Example 3a]",IC50,465 nM
"C=CC(=O)N1CC2(CC(n3nc(-c4ccc(NCCOC)cc4F)c(-c4c(Cl)c(C)cc5[nH]ncc45)c3C)C2)C1 (single isomer, unassigned) [Example 61a, 1-(6-(4-(5-chloro-6-methyl-1H-indazol-4-yl)-3-(2-fluoro-4-((2-methoxyethyl)amino)phenyl)-5-methyl-1H-pyrazol-1-yl)-2-azaspiro[3.3]heptan-2-yl)prop-2-en-1-one]",IC50,27 nM
"C=CC(=O)N1CC2(CC(n3nc(-c4ccc5[nH]ncc5c4)c(-c4c(Cl)c(C)cc5[nH]ncc45)c3C)C2)C1 (single isomer, unassigned) [Example 12a]",IC50,24 nM
"C=CC(=O)N1CC2(CC(n3nc(-c4ccccc4)c(-c4c(Cl)c(C)cc5[nH]nc(N)c45)c3C)C2)C1 (single isomer, unassigned) [Example 70a, 1-{6-[(4M)-4-(3-Amino-5-chloro-6-methyl-1H-indazol-4-yl)-5-methyl-3-phenyl-1H-pyrazol-1-yl]-2-azaspiro[3.3]heptan-2-yl}prop-2-en-1-one]",IC50,30 nM
